# Reference: patent US6855710B2, “Substituted indolines with an inhibitory effect on various kinases and complexes of CDKs” (Boehringer Ingelheim Pharma KG, priority 1998, dated 2005)
row,SMILES,melting point
1,"CCOC(=O)CCNCc1cccc(N/C(=C2\C(=O)Nc3ccc([N+](=O)[O-])cc32)c2ccccc2)c1 [Example 112, (Z)-3-{1-[3-(2-ethoxycarbonyl-ethylaminomethyl)-phenylamino]-1-phenyl-methylidene}-5-nitro-2-indolinone]",142 to 145 °C
2,"CCOC(=O)CNCc1cccc(N/C(=C2\C(=O)Nc3ccc([N+](=O)[O-])cc32)c2ccccc2)c1 [Example 111, (Z)-3-[1-(3-ethoxycarbonylmethylaminomethyl-phenylamino)-1-phenyl-methylidene]-5-nitro-2-indolinone]",130 to 133 °C
3,"CN(C)C(=N)c1cccc(N/C(=C2\C(=O)Nc3ccccc32)c2ccccc2)c1 [Example 66, (Z)-3-{1-[3-(N,N-dimethylcarbamimidoyl)-phenylamino)-1-phenyl-methylidene}-2-indolinone]",238 to 242 °C
4,"CC(=O)N(CCN1CCOCC1)c1ccc(N/C(=C2\C(=O)Nc3ccc([N+](=O)[O-])cc32)c2ccccc2)cc1 [Example 334, (Z)-3-{1-[4-(N-(2-morpholinoethyl)-N-acetyl-amino)-phenylamino]-1-phenyl-methylidene}-5-nitro-2-indolinone]",229 °C
5,C[C@@H](N)c1ccc(N/C(=C2\C(=O)Nc3ccc([N+](=O)[O-])cc32)c2ccccc2)cc1.Cl,230 to 235 °C
6,"O=C(CN1CCOCC1)Nc1ccc(N/C(=C2\C(=O)Nc3ccccc32)c2ccccc2)cc1 [Example 43, (Z)-3-[1-(4-morpholinomethylcarbonylamino-phenylamino)-1-phenyl-methylidene]-2-indolinone]",246 to 248 °C
7,"CC(=O)O.N=C(N)c1ccc(N/C(=C2\C(=O)Nc3ccccc32)c2ccccc2)cc1 [Example 62, (Z)-3-{1-[N-(4-amidinophenyl)-amino]-1-phenyl-methylidene}-2-indolinone-hydroacetate]",> 260 °C (dec.)
8,"CNC(=N)c1cccc(N/C(=C2\C(=O)Nc3ccccc32)c2ccccc2)c1 [Example 65, (Z)-3-{1-[3-(N-methylcarbamimidoyl)-phenylamino]-1-phenyl-methylidene}-2-indolinone]",248 to 250 °C
9,"O=C1Nc2ccccc2/C1=C(/Nc1ccc(C(=O)N2CCCC2)cc1)c1ccccc1 [Example 386, (Z)-3-{1-[4-(pyrrolidin-1-ylcarbonyl)-phenylamino]-1-phenyl-methylidene}-2-indolinone]",127 to 129 °C
10,"CN(C)S(=O)(=O)c1ccc(N/C(=C2\C(=O)Nc3ccccc32)c2ccccc2)cc1 [Example 405, (Z)-3-{1-[4-(dimethylaminosulphonyl)-phenylamino]-1-phenyl-methylidene}-2-indolinone]",280 °C
11,"CNC(=O)CN(c1cccc(N/C(=C2\C(=O)Nc3ccccc32)c2ccc(CN)cc2)c1)S(C)(=O)=O [Example 418, (Z)-3-{1-[3-(N-methylaminocarbonylmethyl-N-methylsulphonyl-amino)-phenylamino]-1-(4-aminomethyl-phenyl)-methylidene}-2-indolinone]",164 °C
12,"CC(C)(C)OC(=O)N(Cc1ccccc1)Cc1ccc(N/C(=C2\C(=O)Nc3ccc([N+](=O)[O-])cc32)c2ccccc2)cc1 [Example 236, (Z)-3-{1-[4-(N-benzyl-N-tert.butoxycarbonyl-aminomethyl)-phenylamino]-1-phenyl-methylidene}-5-nitro-2-indolinone]",202 to 203 °C (dec.)
13,"CCOC(=O)c1cccc(N/C(=C2\C(=O)Nc3ccccc32)c2ccccc2)c1 [Example 14, (Z)-3-[1-(3-ethoxycarbonyl-phenylamino)-1-phenyl-methylidene]-2-indolinone]",194 to 195 °C
14,"CS(=O)(=O)N(CC(=O)O)c1ccc(N/C(=C2\C(=O)Nc3ccc([N+](=O)[O-])cc32)c2ccccc2)cc1 [Example 199, (Z)-3-{1-[4-(N-carboxymethyl-N-methylsulphonyl-amino)-phenyl-amino]-1-phenyl-methylidene}-5-nitro-2-indolinone]",180 to 183 °C
